Columns and labels:
[1] = target: OXA-2 (Class D) β-lactamase (Escherichia coli, UniProt P0A1V9); experiment: In vitro enzymatic assay (Nitrocefin); assay type: biochemical
Method: (§1) 2) Prepare buffer solution A (1×PBS, pH 7.4, 0.1 mg/mL BSA) for enzymatic assay;
(§2) 3) The compound mother liquor was 4-fold serial diluted for 11 times with DMSO in a 96-well tip-bottom plate, which was used as a working solution. A 96-well flat bottom plate was used as a test plate, the corresponding reaction buffer was previously added to each well, followed by addition of a corresponding volume of the working solution (100 μM-0.095 nM and 0 nM). Wherein, EDTA-Na2 was used as a control for the NDM-1 test at a concentration of 20 mM;
(§3) 4) adding the corresponding β-lactamase, and the test plate was incubated at 37° C. for 5 minutes;
(§4) 5) Adding 5 μL Nitrocefin (the final reaction volume was 100 μL), the absorbance OD490 of the reaction solution in the plate was measured by a microplate reader and the result was recorded, the absorbance was measured every minute over 30 minutes;
(§5) 6) The microplate reader could give a curve of OD490 over time. The slope of the curve (Abs2−Abs1)/(T2−T1) was calculated by taking two data points Abs1 and Abs2 within the linear range of the curve.
(§6) 7) The relative inhibition rate was calculated as follows: Slope (EC) was calculated under the condition of absence of an inhibitor, and Slop(S) was calculated under the condition of an inhibitor at a certain concentration.
(§7) The relative inhibition rate and the corresponding concentration of the inhibitor were used to calculate the IC50 value of the inhibitor on β-lactamase. In this experiment, the IC50 was calculated using the formula of GraphPad Prism 5.0, log(inhibitor) vs. normalized response-Variable slope.

[2] = target: OXA-9 (Class D) β-lactamase (Klebsiella pneumoniae, UniProt P0A3M3); experiment: In vitro enzymatic assay (Nitrocefin); assay type: biochemical
Method: as §1, §2, §3, §4, §5, §6, §7

[3] = target: CTX-M-44 (Class C) β-lactamase (Escherichia coli, UniProt Q47066); experiment: In vitro enzymatic assay (Nitrocefin); assay type: biochemical
Method: as §1, §2, §3, §4, §5, §6, §7

[4] = target: AmpC-EC (Class C) β-lactamase (UniProt P05364); experiment: In vitro enzymatic assay (Nitrocefin); assay type: biochemical; conditions: Nitrocefin 0.1 mM, 1 × PBS pH 7.4, 0.1 mg/mL BSA, read-out: IC50, inhibitory activity on β-lactamase
Method: as §1, §2, §3, §4, §5, §6, §7

[5] = test system: K. pneumoniae ATCC-700603 (SHV-18); experiment: In vitro synergistic inhibitory concentration (SIC) assay; assay type: cell-based; conditions: Klebsiella pneumoniae, ATCC700603, 37° C. 20 hours, read-out: minimum inhibitory concentration, used alone
Method: (§8) 2) 30 μL dimethyl sulfoxide was added to columns 2-12 of the 96-V well plate. 60 μL prepared ceftazidime was added to column 1. 30 μL ceftazidime was transferred from column 1 to column 2 and mixed with a pipette. The same operation was continued until column 11, and 30 μL of the mixture in column 11 was discarded. This was the compound mother plate.
(§9) Mix the liquid in the mother plate with a pipette.
(§10) 4) One day before the experiment, the bacterial glycerol stock which was stored in a −80° C. refrigerator was streaked on a trypticase soy agar plate (TSA), and the plate was incubated in a 37° C. incubator overnight. On the day of the experiment, the monoclonal bacterial was suspended in physiological saline and the turbidity of which was adjusted to 0.5 McFarland standard, corresponding to 1×10^8 CFU/ml. This suspension was diluted 100-fold to 1×10^6 CFU/mL with caton-adjusted Mueller-Hnton broth (CAMHB), which was used as an inoculation fluid.
(§11) 5) a 96-U plate was used as a test plate. Firstly, adding 98 μL CAMHB to each well of the test plate and transferring 2 μL solution in the mother plate to the test plate. 100 μL inoculation fluid was added to each well of the test plate.
(§12) 6) The test plate was incubated at 37° C. for 20 hours.
(§13) The above-mentioned method was also used to determine the antibacterial activity of the test compound or the antibiotic when used alone.

[6] = test system: E. cloacae ATCC BAA-1143 (AmpC); experiment: as above; assay type: cell-based; conditions: Enterobacter cloacae, ATCCBAA1143, 37° C. 20 hours, read-out: minimum inhibitory concentration, used alone
Method: as §8, §9, §10, §11, §12, §13

[7] = test system: K. pneumoniae ATCC 51504 (TEM-10); experiment: as above; assay type: cell-based; conditions: Klebsiella pneumoniae, ATCC51504, 37° C. 20 hours, read-out: minimum inhibitory concentration, used alone
Method: as §8, §9, §10, §11, §12, §13

[8] = test system: K. pneumoniae ATCC BAA-1899 (KPC); experiment: as above; assay type: cell-based; conditions: Klebsiella pneumoniae, ATCCBAA1899, 37° C. 20 hours, read-out: minimum inhibitory concentration, used alone
Method: as §8, §9, §10, §11, §12, §13

[9] = test system: K. pneumoniae ATCC 51503 (TEM-10/12); experiment: as above; assay type: cell-based; conditions: Klebsiella pneumoniae, ATCC51503, 37° C. 20 hours, read-out: minimum inhibitory concentration, used alone
Method: as §8, §9, §10, §11, §12, §13

[10] = test system: K. pneumoniae ATCC BAA-1898 (KPC); experiment: as above; assay type: cell-based; conditions: Klebsiella pneumoniae, ATCCBAA1898, 37° C. 20 hours, read-out: minimum inhibitory concentration, used alone
Method: as §8, §9, §10, §11, §12, §13

[11] = test system: K. pneumoniae ATCC BAA-1144 (AmpC); experiment: as above; assay type: cell-based; conditions: Klebsiella pneumoniae, ATCCBAA1144, 37° C. 20 hours, read-out: minimum inhibitory concentration, used alone
Method: as §8, §9, §10, §11, §12, §13

[12] = test system: K. pneumoniae ATCC BAA-205 (TEM-1/SHV-1/SHV-12); experiment: as above; assay type: cell-based; conditions: Klebsiella pneumoniae, ATCCBAA205, 37° C. 20 hours, read-out: minimum inhibitory concentration, used alone
Method: as §8, §9, §10, §11, §12, §13

[13] = test system: K. pneumoniae ATCC BAA-1705 (KPC); experiment: as above; assay type: cell-based; conditions: Klebsiella pneumoniae, ATCCBAA1705, 37° C. 20 hours, read-out: minimum inhibitory concentration, used alone
Method: as §8, §9, §10, §11, §12, §13

[14] = test system: OXA-181 carbapenemase-producing strains (7 strains), clinically isolated Klebsiella pneumoniae; experiment: SIC assay against Chinese clinical isolates (broth microdilution MIC); assay type: cell-based; conditions: for MIC50 / MIC90: Klebsiella pneumoniae; for drug resistance rate / drug sensitive rate: OXA-181 carbapenemase-producing strains (7 strains), CLSI criteria of the antibiotic, inhibitor fixed at 4 μg/mL
From the text: (§14) The broth microdilution method was used to determine the minimum inhibitory concentration (MIC) of antibacterial agents (with and without BLI lead compound) against clinical isolates of carbapenemase-producing strains.
(§15) 1. Drug susceptibility test: according to the method of antimicrobial susceptibility test described in the 2016 edition of the US Clinical and Laboratory Standards Institute (CLSI) document, the MIC of commonly used antibacterial drugs against clinically isolated bacteria was determined by a broth microdilution method.
2. […] All strains were clinically isolated Klebsiella pneumoniae.
(§16) 4. Quality control strains: quality control strains of the drug susceptibility test include Escherichia coli ATCC 25922 and ATCC 35218.

[15] = test system: KPC-2 carbapenemase-producing strains (8 strains), clinically isolated Klebsiella pneumoniae; experiment: as above; assay type: cell-based; conditions: for drug resistance rate / drug sensitive rate: KPC-2 carbapenemase-producing strains (8 strains), CLSI criteria of the antibiotic, inhibitor fixed at 4 μg/mL
From the text: as §14, §15
(§17) 2. Strains: 8 KPC-2 carbapenemase-producing strains, 8 NDM-1 metalloenzyme-producing strains, and 6 OXA-181 carbapenemase-producing strains. All strains were clinically isolated Klebsiella pneumoniae.
as §16

[16] = test system: NDM-1 metalloenzyme-producing strains (8 strains), clinically isolated Klebsiella pneumoniae; experiment: as above; assay type: cell-based; conditions: for MIC50 / MIC90: Klebsiella pneumoniae; for MIC50 / MIC90 / MIC range: NDM-1 metalloenzyme-producing K. pneumoniae clinical isolates (8 strains), enzyme inhibitor in combinations fixed at 4 μg/mL; for drug resistance rate / drug sensitive rate: NDM-1 metalloenzyme-producing strains (8 strains), CLSI criteria of the antibiotic, inhibitor fixed at 4 μg/mL
From the text: as §14, §15, §17, §16

[17] = test system: K. pneumoniae ATCC BAA-2524 (OXA-48); experiment: In vitro synergistic inhibitory concentration (SIC) assay; assay type: cell-based; conditions: Klebsiella pneumoniae, ATCCBAA2524, 37° C. 20 hours, read-out: minimum inhibitory concentration, used alone
Method: as §8, §9, §10, §11, §12, §13

[18] = test system: K. pneumoniae ATCC BAA-2470 (NDM-1); experiment: as above; assay type: cell-based; conditions: Klebsiella pneumoniae, ATCCBAA2470, 37° C. 20 hours, read-out: minimum inhibitory concentration, used alone
Method: as §8, §9, §10, §11, §12, §13

[19] = test system: E. coli ATCC BAA-2523 (OXA-48); experiment: as above; assay type: cell-based; conditions: Escherichia coli, ATCCBAA2523, 37° C. 20 hours, read-out: minimum inhibitory concentration, used alone
Method: as §8, §9, §10, §11, §12, §13

[20] = test system: K. pneumoniae ATCC BAA-2472 (NDM-1); experiment: as above; assay type: cell-based; conditions: Klebsiella pneumoniae, ATCCBAA2472, 37° C. 20 hours, read-out: minimum inhibitory concentration, used alone
Method: as §8, §9, §10, §11, §12, §13

[21] = OXA-181 carbapenemase-producing K. pneumoniae clinical isolates (7 strains), enzyme inhibitor in combinations fixed at 4 μg/mL
[22] = Klebsiella pneumoniae, KPC-2 carbapenemase-producing K. pneumoniae clinical isolates (8 strains), enzyme inhibitor in combinations fixed at 4 μg/mL

Row | Compound | MIC [5] [µg/mL] | MIC [6] [µg/mL] | MIC [7] [µg/mL] | MIC [8] [µg/mL] | MIC [9] [µg/mL] | MIC [10] [µg/mL] | MIC [11] [µg/mL] | MIC [12] [µg/mL] | MIC [13] [µg/mL] | MIC50 [14, 21] [µg/mL] | MIC90 [14, 21] [µg/mL] | MIC50 [15, 22] [µg/mL] | MIC50 [16] [µg/mL] | MIC90 [16] [µg/mL] | MIC range [16] [µg/mL] | drug resistance rate [14] | drug sensitive rate [14] | drug resistance rate [15] | drug sensitive rate [15] | drug resistance rate [16] | also measured
1 | NC(=O)[C@@H]1CC[C@@H]2CN1C(=O)N2OS(=O)(=O)O [Avibactam, avibactam] | – | – | – | – | – | – | – | – | – | – | – | – | – | – | – | – | – | – | – | – | IC50 [1]: 1490 nM; IC50 [2]: 3130 nM; IC50 [3]: 67 nM; IC50 [4]: 107 nM
2 | CC(C)(O/N=C(\C(=O)N[C@@H]1C(=O)N2C(C(=O)[O-])=C(C[n+]3ccccc3)CS[C@H]12)c1csc(N)n1)C(=O)O [Ceftazidime, ceftazidime] | 64 | > 128 | > 128 | > 128 | > 128 | > 128 | > 128 | 32 | > 128 | > 128 | > 128 | > 128 | > 128 | > 128 | >128 | 100 | 0 | 100 | 0 | 100 | MIC range ([15]; KPC-2 carbapenemase-producing K. pneumoniae clinical isolates (8 strains), enzyme inhibitor in combinations fixed at 4 μg/mL): 64 to 128 µg/mL; MIC90 [15, 22]: > 128 µg/mL; drug sensitive rate [16]: 0
3 | C[C@@H](O)[C@H]1C(=O)N2C(C(=O)O)=C(S[C@@H]3CN[C@H](C(=O)Nc4cccc(C(=O)O)c4)C3)[C@H](C)[C@H]12 [Ertapenem, ertapenem] | – | – | – | – | – | – | – | – | – | – | – | – | – | – | – | – | – | – | – | – | MIC [17]: 4 µg/mL; MIC [18]: > 128 µg/mL; MIC [19]: 8 µg/mL; MIC [20]: > 128 µg/mL
4 | C[C@@H](O)[C@H]1C(=O)N2C(C(=O)O)=C(S[C@@H]3CN[C@H](C(=O)N(C)C)C3)[C@H](C)[C@H]12 [meropenem] | – | – | – | – | – | – | – | – | – | 0.5 | 2 | 64 | 4 | 32 | 2 to 32 | 0 | 85.7 | 100 | 0 | 75 | MIC range [14, 21]: 0.5 to 2 µg/mL; drug sensitive rate [16]: 0

Further lines, with some results ahead:

Row | MIC [5] [µg/mL] | MIC [6] [µg/mL] | MIC [7] [µg/mL] | MIC [8] [µg/mL] | MIC [9] [µg/mL] | MIC [10] [µg/mL] | MIC [11] [µg/mL] | MIC [12] [µg/mL] | MIC [13] [µg/mL] | MIC50 [14, 21] [µg/mL] | MIC90 [14, 21] [µg/mL] | MIC50 [15, 22] [µg/mL] | MIC50 [16] [µg/mL] | MIC90 [16] [µg/mL] | MIC range [16] [µg/mL] | Compound | drug resistance rate [14] | drug sensitive rate [14] | drug resistance rate [15] | drug sensitive rate [15] | drug resistance rate [16] | also measured
5 | > 128 | 4 | > 128 | > 128 | > 128 | > 128 | > 128 | > 128 | > 128 | – | – | – | – | – | – | NCCONC(=O)[C@@H]1CC[C@@H]2CN1C(=O)N2OS(=O)(=O)O [OP-0595] | – | – | – | – | – | MIC [17]: > 128 µg/mL; MIC [18]: > 128 µg/mL; MIC [19]: 16 µg/mL; MIC [20]: > 128 µg/mL
6 | – | – | – | – | – | – | – | – | – | – | – | – | 64 | – | – | C[C@H]1[C@H](NC(=O)/C(=N\OC(C)(C)C(=O)O)c2csc(N)n2)C(=O)N1S(=O)(=O)O [aztreonam] | – | – | – | – | – | –
